ChEMBL document CHEMBL1201862, “PubChem BioAssay data set” (2004)
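These data come from cells grown in 96-well plates and exposed to compound for 48 hours at five concentrations. GI50 = concentration required for 50% inhibition of growth.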 Active and inactive are the calls of the source. Cut-off read from the data, not from the text of the source: active = GI50 up to about 1.1 µM and inactive = higher.

How the values were obtained:
Test in all cases: inhibition of tumour cell growth, NCI panel, 48 h
786-0 = tested on: 786-0
ACHN = tested on: ACHN
UO-31 = tested on: UO-31
HOP-62 = tested on: HOP-62
RPMI-8226 = tested on: RPMI-8226
COLO 205 = tested on: COLO 205
OVCAR-3 = tested on: OVCAR-3
K562 = tested on: K562
TK-10 = tested on: TK-10
U-251 = tested on: U-251
SR = tested on: SR
SW-620 = tested on: SW-620
UACC-257 = tested on: UACC-257
A498 = tested on: A498
SK-MEL-2 = tested on: SK-MEL-2
SNB-75 = tested on: SNB-75

Measured: GI50

CN(C)c1ccc(-c2cc(O)c3ccccc3n2)cc1
inactive: 786-0 > 100 µM | ACHN > 100 µM | UO-31 > 100 µM | HOP-62 > 100 µM | RPMI-8226 > 100 µM | COLO 205 > 100 µM | OVCAR-3 > 100 µM | K562 > 100 µM | TK-10 > 100 µM | U-251 > 100 µM | SR > 100 µM | SW-620 > 100 µM | UACC-257 > 100 µM

N#CC(C#N)=Cc1ccc(CP(=O)(O)O)cc1
inactive: 786-0 > 100 µM | A498 > 100 µM | ACHN > 100 µM | UO-31 > 100 µM | HOP-62 > 100 µM | RPMI-8226 > 100 µM | COLO 205 > 100 µM | OVCAR-3 > 100 µM | K562 > 100 µM | TK-10 > 100 µM | U-251 > 100 µM | SK-MEL-2 > 100 µM | SW-620 > 100 µM | UACC-257 > 100 µM

CC(=O)C(CN(CC(C)C)CC(C)C)C(c1ccccc1)c1c(O)c2ccccc2oc1=O (stereo not given)
inactive: 786-0 > 100 µM | A498 > 100 µM | SNB-75 > 100 µM | ACHN > 100 µM | HOP-62 > 100 µM | RPMI-8226 > 100 µM | COLO 205 > 100 µM | OVCAR-3 > 100 µM | K562 > 10 µM | TK-10 > 100 µM | SK-MEL-2 > 100 µM | SW-620 > 100 µM | UACC-257 > 100 µM

COc1ccc(C2C3=C(COC3=O)Oc3cc4c(cc32)OCO4)cc1 (stereo not given)
inactive: 786-0 27.2 µM | SNB-75 8.3 µM | ACHN 21.1 µM | UO-31 16.7 µM | HOP-62 8.39 µM | RPMI-8226 12.7 µM | COLO 205 13 µM | OVCAR-3 7.18 µM | K562 3.85 µM | TK-10 29.3 µM | U-251 23.9 µM | SK-MEL-2 47.1 µM | SW-620 6.21 µM | UACC-257 39.3 µM

CNC(=S)N/N=C1\CC(c2ccccc2)Oc2ccccc21 (stereo not given)
inactive: 786-0 > 100 µM | SNB-75 > 100 µM | ACHN > 100 µM | UO-31 8.11 µM | COLO 205 > 100 µM | OVCAR-3 34.8 µM | K562 > 100 µM | TK-10 > 100 µM | U-251 > 100 µM | SR > 100 µM | SK-MEL-2 > 100 µM | SW-620 > 100 µM

O=C1[C@H]2C(c3ccccc3)=NN(C(=O)c3ccccc3)[C@H]2C(=O)N1c1ccccc1
inactive: 786-0 > 100 µM | SNB-75 > 100 µM | ACHN > 100 µM | UO-31 > 100 µM | HOP-62 > 100 µM | RPMI-8226 > 100 µM | COLO 205 > 100 µM | OVCAR-3 > 100 µM | K562 > 100 µM | TK-10 > 100 µM | U-251 > 100 µM | SK-MEL-2 > 100 µM | SW-620 > 100 µM | UACC-257 > 100 µM

CC1=C(C(=O)NNS(=O)(=O)c2ccc(C)cc2)CC(C(=O)NNS(=O)(=O)c2ccc(C)cc2)=C(C)N1
inactive: 786-0 > 100 µM | ACHN 84.9 µM | UO-31 > 100 µM | HOP-62 > 100 µM | RPMI-8226 36.2 µM | COLO 205 > 100 µM | OVCAR-3 > 100 µM | K562 56.9 µM | TK-10 56.4 µM | U-251 > 100 µM | SR 61.1 µM | SK-MEL-2 > 100 µM | SW-620 > 100 µM | UACC-257 > 100 µM

Cc1ccccc1C1=C(C(=O)Nc2ccc(Cl)c(Cl)c2)NC(=S)NC1N (stereo not given)
inactive: 786-0 > 100 µM | A498 > 100 µM | SNB-75 > 100 µM | ACHN > 100 µM | UO-31 > 100 µM | RPMI-8226 > 100 µM | COLO 205 > 100 µM | OVCAR-3 > 100 µM | K562 > 100 µM | TK-10 > 100 µM | U-251 > 100 µM | SK-MEL-2 > 100 µM | SW-620 > 100 µM | UACC-257 > 100 µM

COc1ccc(N2C(=O)C3c4[nH]c5ccccc5c4C4CC(C)CC(C)C4C3C2=O)cc1 (stereo not given)
inactive: 786-0 > 100 µM | A498 > 100 µM | SNB-75 > 100 µM | ACHN > 100 µM | UO-31 > 100 µM | HOP-62 > 100 µM | RPMI-8226 > 100 µM | COLO 205 > 100 µM | K562 > 100 µM | U-251 > 100 µM | SR > 100 µM | SW-620 > 100 µM | UACC-257 > 100 µM

O=S1(=O)C[C@H](O)[C@H](O)CS1
inactive: 786-0 > 100 µM | A498 > 100 µM | SNB-75 > 100 µM | ACHN > 100 µM | UO-31 > 100 µM | HOP-62 > 100 µM | RPMI-8226 > 100 µM | COLO 205 > 100 µM | OVCAR-3 > 100 µM | K562 > 100 µM | TK-10 > 100 µM | U-251 > 100 µM | SR > 100 µM | SW-620 > 100 µM | UACC-257 > 100 µM

O=C(c1ccccc1)c1c(C(=O)c2ccccc2)c(-c2ccccc2)c2c(-c3ccccc3)sc(-c3ccccc3)c2c1-c1ccccc1
inactive: 786-0 > 100 µM | A498 > 100 µM | SNB-75 > 100 µM | ACHN > 100 µM | UO-31 > 100 µM | HOP-62 > 100 µM | RPMI-8226 > 100 µM | COLO 205 > 100 µM | OVCAR-3 > 100 µM | K562 > 100 µM | TK-10 > 100 µM | U-251 > 100 µM | SW-620 > 100 µM | UACC-257 > 100 µM

CN1CCc2c1nc(-c1cccnc1)c1c2N(C)CC1
inactive: 786-0 > 100 µM | A498 52 µM | SNB-75 > 100 µM | ACHN > 100 µM | UO-31 48.8 µM | HOP-62 > 100 µM | RPMI-8226 > 100 µM | COLO 205 > 100 µM | OVCAR-3 65.8 µM | K562 > 100 µM | TK-10 > 100 µM | U-251 > 100 µM | SK-MEL-2 > 100 µM | SW-620 > 100 µM | UACC-257 > 100 µM

Cc1oc2c(C)c(O)c3c(c2c1C1(C)OCCO1)C(=O)C=C(Cl)C3=O
inactive: 786-0 > 100 µM | A498 > 100 µM | ACHN > 100 µM | UO-31 > 100 µM | HOP-62 > 100 µM | RPMI-8226 > 100 µM | COLO 205 > 100 µM | OVCAR-3 > 100 µM | K562 > 100 µM | TK-10 > 100 µM | U-251 > 100 µM | SR > 100 µM | SK-MEL-2 > 100 µM | SW-620 > 100 µM | UACC-257 > 100 µM

CC(C)(C)[C@H]1CO[C@]2(C)[C@@H]3C[C@@H]3C(=O)N12
inactive: 786-0 > 100 µM | SNB-75 > 100 µM | ACHN > 100 µM | UO-31 > 100 µM | HOP-62 > 100 µM | RPMI-8226 > 100 µM | COLO 205 > 100 µM | OVCAR-3 > 100 µM | K562 > 100 µM | TK-10 > 100 µM | U-251 > 100 µM | SR > 100 µM | SK-MEL-2 > 100 µM | SW-620 > 100 µM | UACC-257 > 100 µM
